What all share (format): cell-based
For assay [1], the system named is Colo320 human rectal cancer cells. The assay can be described thus: CCK-8 proliferation inhibition, Colo320. Conditions: Homo sapiens, COLO 320, CCK-8 method; for inhibition at 10 µM: compound concentration 10 μM; for inhibition at 100 µM: compound concentration 100 μM. The method, then:
(§1) Detecting the inhibition rate of the compound concentrations of 100 μM and 10 μM to Hut78 T-cell Leukemia cell, Jurkat E6-1 human T-cell lymphoma, PANC-1 human pancreatic cancer cells, A549 human lung cancer cells, K562 human chronic myeloid leukemia cells, Hep3B2.1-7 human liver cancer cells, MDA-MB-435s human breast cancer cells, Colo320 human rectal cancer cells and PC-3 human prostate cancer using CCK-8 method.
For orientation: Tetrazolium assays rely on reduction of a dye to a coloured formazan, in cell work by metabolically active cells.

In assay [2] the test system is Jurkat E6-1 human T-cell lymphoma. Briefly: CCK-8 proliferation inhibition, Jurkat E6-1. The note with it: Homo sapiens; for inhibition at 10 µM: Jurkat E6.1, 10 μM; for inhibition at 100 µM: Jurkat E6.1, 100 μM. The method, then: as §1
Assay [3] concerns MDA-MB-435s human breast cancer cells. The assay can be described thus: CCK-8 proliferation inhibition, MDA-MB-435s. Conditions: Homo sapiens, MDA-MB-435S, CCK-8 method; for inhibition at 10 µM: compound concentration 10 μM; for inhibition at 100 µM: compound concentration 100 μM. On the procedure: as §1
For assay [4], the system named is K562 human chronic myeloid leukemia cells. Briefly: CCK-8 proliferation inhibition, K562. The note with it: Homo sapiens; for inhibition at 10 µM: K562, 10 μM; for inhibition at 100 µM: K562, 100 μM. On the procedure:
as §1

Assay [5] relates to PC-3 human prostate cancer. Briefly: CCK-8 proliferation inhibition, PC-3. The note with it: Homo sapiens, CCK-8 method; for inhibition at 10 µM: compound concentration 10 μM; for inhibition at 100 µM: compound concentration 100 μM. The method, then:
as §1

In assay [6] the test system is Hut78 T-cell Leukemia cell. Briefly: CCK-8 proliferation inhibition, Hut78. Conditions: Homo sapiens, read-out: Hut-78 (inhibition %); for inhibition at 10 µM: HuT78, 10 μM; for inhibition at 100 µM: HuT78, 100 μM. On the procedure:
as §1

In assay [7] the test system is Hep3B2.1-7 human liver cancer cells. Briefly: CCK-8 proliferation inhibition, Hep3B2.1-7. Conditions: Homo sapiens, Hep3B, CCK-8 method; for inhibition at 10 µM: compound concentration 10 μM; for inhibition at 100 µM: compound concentration 100 μM. The method, then: as §1
Assay [8] concerns A549 human lung cancer cells. Briefly: CCK-8 proliferation inhibition, A549. Conditions: Homo sapiens, A549, CCK-8 method; for inhibition at 10 µM: compound concentration 10 μM; for inhibition at 100 µM: compound concentration 100 μM. The method, then:
as §1

The subject of assay [9] is PANC-1 human pancreatic cancer cells. The assay can be described thus: CCK-8 proliferation inhibition, PANC-1. Conditions: Homo sapiens; for inhibition at 10 µM: PANC-1, 10 μM; for inhibition at 100 µM: PANC-1, 100 μM. The method, then: as §1

For seven molecules, inhibition results are on record in patent publication US8889876B2, “Histone deacetylase inhibitors and uses thereof” (Jiangsu Hengyi Pharmaceutical Co., Ltd., priority 2008, dated 2014).

In general, inhibition refers to the relative decrease from the control value, in per cent.

For `Cc1ccc(COC(=O)NCc2ccc(C(=O)Nc3ccncc3N)cc2)cc1` [V-10], the inhibition at 10 µM in [1] was -5.5%; in assay [2], 27.2%; in assay [3] it was 8%; in assay [4] it was 53.6%; in assay [5] it was 23.7%; in assay [6], 15.5%. The inhibition at 10 µM in assay [7] is -7%; in assay [8], -16.9%; in assay [9] it was 16.9%. The inhibition at 100 µM was 59.2% in assay [1]; 93.3% in [2]; 79.1% in [3]; 87.2% in assay [4]; 56% in [5]; 66.6% in [6]. Further, the values for the inhibition at 100 µM in assay [7], in assay [8] and in assay [9] were 57.5%, 45.7% and 19.7%, respectively.

For the molecule `COc1ccc(COC(=O)NCc2ccc(C(=O)Nc3ccncc3N)cc2)cc1` [V-12], the inhibition at 10 µM in [1] was -1.8%; in [2], 36.4%; in [3] it was 14.2%; in assay [4], 56.9%; in assay [5], 29.7%; in assay [6], 17.5%. The inhibition at 10 µM in assay [7] is 5%; in assay [8] it was -5.9%; in assay [9], -1.8%. Also, the inhibition at 100 µM was 86.4% in [1]; 96.3% in assay [2]; 94.5% in [3]; 94.5% in [4]; 89.3% in [5]; 83.6% in assay [6]. Besides, the inhibition at 100 µM in assay [7] was 90.4%; in [8], 38%; in assay [9] it was 34.9%.

With `Nc1ncccc1NC(=O)c1ccc(CNC(=O)OCc2ccc([N+](=O)[O-])cc2)cc1` [V-15, N-(2-amino-3-pyridyl)-4-[(4-nitrobenzyloxyacyl)aminomethyl]benzamide], the inhibition at 10 µM was 2.6% in assay [1]; 18.6% in assay [2]; 30.6% in assay [3]; 20.4% in assay [4]; 21.9% in [5]; 28.5% in assay [6]. Moreover, the inhibition at 10 µM is 22.3% in assay [7], 15.3% in assay [8] and 24% in assay [9]. For the same molecule, the inhibition at 100 µM came out at 4.1% in [1]; 26.3% in assay [2]; 42.4% in assay [3]; 32.3% in assay [4]; 18.8% in assay [5]; 24.6% in assay [6]. Further, the inhibition at 100 µM in assay [7] came to 43%; in assay [8], 12.9%; in assay [9] it was 21.1%.

For the molecule `Nc1ncccc1NC(=O)c1ccc(CNC(=O)OCc2ccc(F)cc2)cc1` [V-19, N-(2-amino-3-pyridyl)-4-[(4-fluorobenzyloxyacyl)aminomethyl]benzamide], the inhibition at 10 µM in assay [1] is 0.9%; in assay [2], 19.1%; in assay [3], 27.5%; in assay [4], 25%; in assay [5] it was -1.9%; in [6], 19.8%. Moreover, the inhibition at 10 µM in assay [7] turned out to be 21.5%; in assay [8], 18.3%; in [9] it was 26%. The inhibition at 100 µM in assay [1] is 34.3%; in assay [2] it was 77.8%; in assay [3], 89.1%; in assay [4], 65.1%; in assay [5] it was 48.5%; in [6] it was 54%. Besides, the values for the inhibition at 100 µM in assay [7], in assay [8] and in [9] were 69.8%, 57.1% and 36.8%, respectively.

As for `Nc1cnccc1NC(=O)c1ccc(CNC(=O)OCc2ccc(F)cc2)cc1` [V-20], the inhibition at 10 µM in assay [1] is -14.3%; in assay [2], 23.8%; in [3], 19.5%; in assay [4], 34%; in assay [5] it was 22.9%; in assay [6] it was 22%. Also, the values for the inhibition at 10 µM in [7], in assay [8] and in assay [9] were 7.2%, -17.6% and -2.8%, respectively. Moreover, the inhibition at 100 µM came to 82.7% in assay [1]; 96.5% in assay [2]; 63.9% in [3]; 88.7% in assay [4]; 84.4% in assay [5]; 91.1% in assay [6]. Also, the figures for the inhibition at 100 µM in assay [7], in [8] and in assay [9] were 79.3%, 72.2% and 15.7%, respectively.

For `Nc1ncccc1NC(=O)c1ccc(CNC(=O)/C=C/c2ccccc2)cc1` [V-25, N-(2-amino-3-pyridyl)-4-(cinnamoylaminomethyl)benzamide], the inhibition at 10 µM in assay [1] came out at 4.9%; in assay [2], 20.3%; in [3], 32.5%; in assay [4] it was 33.6%; in assay [5], 41.8%; in [6] it was 23.4%. Besides, the inhibition at 10 µM in [7] came to 18.4%; in assay [8], 29.8%; in [9], 12%. Also, the inhibition at 100 µM in [1] was found to be 28.9%; in assay [2], 80.2%; in [3], 73.3%; in assay [4] it was 72.4%; in assay [5] it was 67.1%; in [6], 53.5%. For the same molecule, the inhibition at 100 µM in assay [7] came out at 45.7%; in assay [8], 67.9%; in assay [9], 25.1%.

Regarding `Cc1ccc(/C=C/C(=O)NCc2ccc(C(=O)Nc3cccnc3N)cc2)cc1` [V-27, N-(2-amino-3-pyridyl)-4-[(4-methylcinnamoyl)aminomethyl]benzamide], the inhibition at 10 µM is 12.9% in assay [1]; 58.3% in assay [2]; 33% in assay [3]; 54.3% in assay [4]; 50.2% in assay [5]; 43% in assay [6]. Besides, the values for the inhibition at 10 µM in [7], in [8] and in assay [9] were 25.4%, 6.3% and 20.2%, respectively. In addition, the inhibition at 100 µM in [1] worked out at 40.1%; in assay [2], 80.9%; in assay [3], 77%; in assay [4], 85.8%; in assay [5], 61%; in [6] it was 77%. Further, the inhibition at 100 µM in assay [7] was determined as 49.9%; in assay [8], 37.3%; in assay [9], 26.2%.
